Holding throughout (assay): NCI anticancer screen, dose series, 48 h
Assay [1] concerns OVCAR-4 ovarian.
Assay [2] concerns NCI-H460 lung.
Assay [3] deals with SF-539 CNS.
Assay [4] deals with HT29 colon.
In assay [5] the test system is SK-MEL-2 melanoma.
For assay [6], the system named is HCC-2998 colon.
The test system of assay [7] is 786-0 renal.
Assay [8] deals with SK-MEL-5 melanoma.
In assay [9] the test system is CCRF-CEM leukemia.
The subject of assay [10] is RXF 393 renal.

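Step 1: Grow cells in 96-well plates. Step 2: Expose to compound for 48 hours at 5 concentrations. Step 3: Interpolate endpoints linearly; if unreached, use highest concentration. GI50 = concentration required for 50% inhibition of growth. TGI: concentration producing complete growth inhibition.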 A value given as a limit tells only on which side of the number the result lay.

Consider `COc1cc([C@H]2OC[C@H]3[C@@H]2CO[C@@H]3c2cc(OC)c3c(c2)OCO3)cc(OC)c1OC`, for which the TGI in assay [1], in assay [2], in [3], in assay [4], in [5] and in assay [6] was greater than 100 µM in each case. The TGI in [7] was greater than 100 µM; in [8], 48.7 µM.
Consider `COc1ccc(C(=O)C(c2ccc(OC)cc2)C2(O)C(=O)Nc3c2ccc(Cl)c3C)cc1` (centres undefined), for which the TGI in assay [9], in [1], in assay [2], in assay [10], in [4] and in [5] was greater than 100 µM throughout. For the same molecule, the TGI in assay [6], in [7] and in assay [8] was greater than 100 µM in each case.
Turning to `N#CC(c1nc2ccccc2nc1Cl)S(=O)(=O)c1ccccc1` (centres undefined), the TGI in assay [9], in assay [1], in assay [2], in assay [3], in [5] and in [6] was greater than 100 µM in each case. Moreover, the TGI in assay [7] and in assay [8] was greater than 100 µM in each case.
Regarding `C1=C2/CC[C@H](Sc3ccccc3)[C@H]2C2(CCCCC/1)OCCO2`, the TGI in assay [9] was 66.4 µM; in [2], greater than 100 µM; in assay [3], greater than 100 µM; in assay [4], greater than 100 µM; in assay [5] it was 33.2 µM; in assay [6] it was 41.3 µM. Further, the results for the TGI in assay [7] and in assay [8] were greater than 100 µM and 59.1 µM, respectively.
`Cc1ccccc1NC(=O)C(=O)CC(=O)c1c(C)n([O-])c2ccccc2[n+]1=O`: the TGI in assay [1], in [2], in assay [10], in assay [3], in [4] and in assay [5] was greater than 100 µM throughout. Further, the TGI in assay [6] and in [7] was greater than 100 µM in each case.
Consider `Cc1ccc(CNc2c3ccccc3nc3cc(NC(=O)CCN4CCCC4)ccc23)cc1`, for which the GI50 in [9] is 0.392 µM; in assay [1], 0.569 µM; in assay [2], 0.365 µM; in assay [10] it was 0.414 µM; in assay [3], 0.618 µM; in [5], 1.69 µM. For the same molecule, the GI50 in [6] is 0.573 µM; in [7], 0.732 µM; in [8], 1.54 µM. Moreover, the TGI in [9] amounted to 2.12 µM; in assay [1] it was 2.02 µM; in assay [2], 1.25 µM; in assay [10] it was 1.57 µM; in assay [3], 1.9 µM; in assay [5], 3.23 µM. In addition, the TGI in assay [6] came out at 2.01 µM; in assay [7], 2.04 µM; in [8] it was 2.89 µM.
With `CCCOC(=O)N1CCN(/[N+]([O-])=N/Oc2ccc([N+](=O)[O-])cc2[N+](=O)[O-])CC1`, the GI50 in [2] was 2.54 µM; in assay [10] it was 8.67 µM; in assay [3], 0.273 µM; in assay [4], 2.05 µM; in assay [5] it was 2.71 µM; in assay [7] it was 1 µM. Also, the GI50 in [8] was 2.35 µM. Also, the TGI in assay [2] was 8.82 µM; in [10], 23.8 µM; in assay [3] it was 0.648 µM; in [4], greater than 100 µM; in assay [5], 7.78 µM; in assay [7] it was 2.95 µM. This molecule displayed a TGI in assay [8] of 7.53 µM.
Regarding `Cc1ccc(N2C(=O)C3C=CC(n4[nH]c(=O)n(Cc5ccccc5)c4=O)CC3C2=O)cc1` (centres undefined), the TGI in [9], in assay [2], in [10], in assay [3], in [4] and in [5] was greater than 100 µM each time. In addition, the TGI in assay [6], in assay [7] and in [8] was greater than 100 µM throughout.
Turning to `CCOC(=O)C(=Cc1cccnc1C)C(=O)OCC`, the TGI in assay [9] was greater than 100 µM; in assay [1], 27.4 µM; in [2], 35.8 µM; in [10], 9.8 µM; in assay [3] it was 33.3 µM; in assay [4], 18.4 µM. The TGI in assay [5] turned out to be 16 µM; in assay [7], 20.8 µM; in assay [8], 25.1 µM.
With `NC(=O)c1c(NC(=O)c2ccc3c(c2)OCO3)sc2c1CCC(=O)C2`, the GI50 in [9] is 0.333 µM; in assay [1], 0.494 µM; in [10] it was 1.88 µM; in assay [6], 3.45 µM; in [7] it was 2.19 µM; in assay [8] it was 1.77 µM. Besides, the TGI was 2.32 µM in assay [9]; 1.79 µM in assay [1]; 5.36 µM in assay [10]; greater than 100 µM in assay [6]; greater than 100 µM in assay [7]; 3.17 µM in assay [8].
As to `COc1cc(C2C(Cl)C(=O)N2NC(=O)c2ccc(N)cc2)ccc1O` (centres undefined), the TGI was 47.3 µM in [9]; greater than 100 µM in [1]; greater than 100 µM in assay [2]; 62.1 µM in assay [3]; 45.8 µM in [4]; greater than 100 µM in [5]. Also, the values for the TGI in assay [6], in assay [7] and in assay [8] were 38 µM, 39.4 µM and greater than 100 µM, respectively.
For the molecule `O=C(COc1ccc(/C=C2\Oc3ccccc3C2=O)cc1)Nc1nc2c(s1)CCCC2`, the GI50 in assay [9] was 0.148 µM; in assay [1], 13.1 µM; in assay [2] it was 30.3 µM; in assay [3] it was 0.622 µM; in assay [4], 3.21 µM; in assay [5] it was 4.87 µM. In addition, the GI50 was 16 µM in assay [6], 0.818 µM in assay [7] and 17.4 µM in [8]. The TGI is 0.309 µM in assay [9]; greater than 100 µM in assay [1]; greater than 100 µM in [2]; 1.4 µM in assay [3]; greater than 39.4 µM in assay [4]; 50.2 µM in [5]. The TGI in [6] is 52.3 µM; in assay [7], 31.7 µM; in assay [8] it was greater than 57.5 µM.
In the case of `O=C(Nc1ccc(Cl)c(Cl)c1)O/N=C\c1c(Cl)ccc([N+](=O)[O-])c1Cl`, the GI50 in assay [9] was 1.88 µM; in assay [1], 1.74 µM; in assay [2], 2.63 µM; in assay [3] it was 2.64 µM; in assay [4], 1.91 µM; in assay [5], 2.34 µM. The GI50 in assay [7] is 3.96 µM; in assay [8], 2.38 µM. Also, the TGI in assay [9] turned out to be 5.1 µM; in assay [1], 3.14 µM; in assay [2] it was 7.68 µM; in [3], 8.36 µM; in [4] it was 3.53 µM; in assay [5], 4.98 µM. Moreover, the TGI in [7] stood at 13.5 µM; in [8], 8.59 µM.
In the case of `O=C(Nc1cccc(NC(=O)Nc2cc(C(F)(F)F)ccc2Cl)c1)Nc1cc(C(F)(F)F)ccc1Cl`, the GI50 in assay [9] is 3.21 µM; in [1], 0.746 µM; in assay [2] it was 2.22 µM; in [3], 6.15 µM; in [4] it was 4.26 µM; in [5], 2.53 µM. Also, the GI50 was 6.72 µM in assay [6], 4.93 µM in assay [7] and 3.2 µM in assay [8]. In addition, the TGI was determined as 71.7 µM in assay [9]; 3.61 µM in [1]; 10.5 µM in assay [2]; 32 µM in assay [3]; 66.1 µM in [4]; 7.33 µM in [5]. The TGI was greater than 100 µM in [6], greater than 100 µM in [7] and 65.6 µM in assay [8].
For `O=c1c2ccccc2nc(-c2ccccc2)n1NC1OC(CO)C(O)C(O)C1O` (centres undefined), the TGI in assay [9], in assay [1], in assay [2], in assay [3], in [4] and in [5] was greater than 100 µM throughout. Besides, the TGI in [6], in assay [7] and in [8] was greater than 100 µM each time.
Regarding `COc1ccc(OC)c2c1C(=O)C1CC1(Br)C2=O` (centres undefined), the TGI in [9], in [1], in assay [2], in assay [3], in assay [4] and in [5] was greater than 100 µM throughout. Further, the TGI in assay [6], in assay [7] and in assay [8] was greater than 100 µM throughout.
With `COc1ccc(/C=N/N=C(\N)NO)c(OC)c1`, the TGI is greater than 100 µM in assay [9]; greater than 100 µM in assay [1]; greater than 100 µM in [10]; greater than 100 µM in assay [3]; greater than 100 µM in assay [5]; 43.7 µM in assay [6]. In addition, the TGI in [7] and in [8] was greater than 100 µM throughout.
Turning to `C[C@]12CCC3[C@@H](CC[C@@H]4c5nonc5CC[C@]34C)C1C/C(=N/O)C2=O` (some centres undefined), the TGI in assay [9], in assay [1], in assay [2], in assay [10], in assay [3] and in assay [4] was greater than 100 µM each time. The TGI in assay [5] was 52 µM; in [7] it was greater than 100 µM; in [8], greater than 100 µM.
Turning to `O=CC1CCCc2ccccc21` (centres undefined), the TGI in assay [9] was greater than 72 µM; in assay [1], greater than 100 µM; in [2] it was greater than 100 µM; in [10], greater than 100 µM; in assay [4], greater than 100 µM; in assay [5] it was greater than 100 µM. Moreover, the TGI in [6], in [7] and in [8] was greater than 100 µM throughout.
Turning to `[N-]=[N+]=NC(CI)c1cn([C@H]2C[C@H](O)[C@@H](CO)O2)c(=O)[nH]c1=O` (some centres undefined), the TGI in assay [9], in assay [2], in [10], in [3], in assay [4] and in assay [5] was greater than 100 µM in each case. The TGI in assay [6], in assay [7] and in assay [8] was greater than 100 µM each time.
As to `Nc1[nH]nc2nc(-c3cccs3)cc(C(F)(F)F)c12`, the GI50 is greater than 25 µM in assay [1]; greater than 25 µM in [2]; 18.9 µM in assay [10]; greater than 25 µM in [3]; greater than 25 µM in assay [4]; greater than 22.3 µM in assay [5]. The GI50 in assay [6], in assay [7] and in assay [8] was greater than 25 µM throughout. Further, the TGI in [1], in assay [2], in [10], in assay [3], in assay [4] and in assay [5] was greater than 25 µM in each case. For the same molecule, the TGI in assay [6], in assay [7] and in assay [8] was greater than 25 µM throughout.
`COc1ccc(C2=NN(c3ccccc3)C[N+](c3ccc(OC)cc3)=N2)cc1`: the TGI is 83.4 µM in assay [9]; 64 µM in [1]; greater than 100 µM in [2]; 72.1 µM in assay [10]; greater than 100 µM in assay [4]; greater than 100 µM in [6]. The TGI in [7] was greater than 100 µM; in [8], 29.8 µM.
Turning to `CN1c2ccccc2N(C)C23N(C)c4ccccc4N(C)C12N(C)c1ccccc1N3C` (centres undefined), the TGI in assay [9], in [2], in [10], in [3], in [4] and in assay [5] was greater than 100 µM in each case. Further, the TGI in [6], in assay [7] and in [8] was greater than 100 µM throughout.
For `O=S1(=O)OCCOS(=O)(=O)C1Cc1ccccc1`, the TGI in assay [1] is greater than 100 µM; in assay [2], greater than 100 µM; in [10] it was greater than 100 µM; in assay [3] it was 95.6 µM; in assay [4], greater than 100 µM; in [6] it was 45.4 µM. Further, the TGI in [7] is greater than 100 µM.

These data come from PubChem BioAssay (NCI).
